Measured values published in US11903929B2, “Method for inhibiting dengue virus infection” (FLORIDA STATE UNIVERSITY RESEARCH FOUNDATION, INC., priority 2018, dated 2024).
Like-named read-outs stand apart in the source and are kept apart here. Where a SMILES comes first, the peptide text is derived from it. [ ]: non-standard residue; d: D form. ξ: configuration not given here. ξLac(3-iPr) = CC(C)CC(O)C(=O)O; NMeV = CN[CH](C(=O)O)C(C)C; NMeA = CN[CH](C)C(=O)O; βAla = NCCC(=O)O

Assays:
[1] = tested on: Zika virus; experiment: Zika viral production assay (infectious viral titer assay on Vero cells); type: cell-based; details: read-out: Anti-ZIKV activity IC50
[2] = tested on: dengue virus; experiment: Western blot analysis of viral protein levels in dengue virus-infected cells; type: cell-based
Experimental: These 19 compounds were further validated for antiviral activity by a Zika viral production assay and also by analyzing protein production via Western blot in dengue virus-infected cells. Human glioblastoma cells were treated with individual compounds for 1 hour prior to infection with Zika virus or dengue virus for 24 hours. After 24 hours, cellular lysate was harvested for Western blot analysis of viral protein levels (DENV infection), or supernatant collected and used to infect Vero cells in an infectious viral titer assay (ZIKV infection).

[3] = Zika virus, human glioblastoma cells treated 1 hour prior to infection, 24 hours, supernatant titered on Vero cells, values in E-notation, unit inferred
[4] = 1 uM, SNB-19 human glioblastoma cells, compound 1 hour prior to infection, 24 hours infection, Western blot of viral protein
[5] = 10 uM, SNB-19 human glioblastoma cells, compound 1 hour prior to infection, 24 hours infection, Western blot of viral protein
[6] = Zika virus, human glioblastoma cells treated 1 hour prior to infection, 24 hours, supernatant titered on Vero cells, μM

SMILES | IC50 [1, 3] [µM] | Anti-DENV Activity at 1 uM (SNB-19 cells) [2, 4] | Anti-DENV Activity at 10 uM (SNB-19 cells) [2, 5] | further results
COc1cc(C2CC(=O)Nc3cc4c(cc32)OCCO4)cc(Br)c1OC (centres unmarked) [NCGC00107055-01, 9-(3-bromo-4,5-dimethoxyphenyl)-2,3,8,9-tetrahydro-[1,4]dioxino[2,3-g]quinolin-7(6H)-one] | 0.0285 | No | No | –
COc1ccccc1-c1nnc2sc(-c3ccc(N(C)C)cc3)nn12 [NCGC00071621-03, 4-(3-(2-methoxyphenyl)-[1,2,4]triazolo[3,4-b][1,3,4]thiadiazol-6-yl)-N,N-dimethylaniline] | – | – | – | IC50 ([1]; Zika virus, Vero): > 30 µM; Anti-DENV Activity at 1 uM (SNB-19 cells) ([2]; 1 uM): No; Anti-DENV Activity at 10 uM (SNB-19 cells) ([2]; 10 uM): No
COc1cc2c(c(OC)c1OC)-c1ccc(OC)c(=O)cc1[C@@H](NC(C)=O)CC2 [NCGC00025125-18, N-[(7S)-1,2,3,10-tetramethoxy-9-oxo-6,7-dihydro-5H-benzo[a]heptalen-7-yl]acetamide] | – | No | No | –
CC(C)(C)c1ccc(C(=O)Nc2ccc3c(c2)CCCN3C(=O)c2cccs2)cc1 [NCGC00131231-01, 4-(tert-butyl)-N-(1-(thiophene-2-carbonyl)-1,2,3,4-tetrahydroquinolin-6-yl)benzamide] | 7.6 | No | No | –
CC[C@H](C)[C@@H]([C@@H](CC(=O)N1CCC[C@H]1[C@H](OC)[C@@H](C)C(=O)N[C@@H](Cc1ccccc1)c1nccs1)OC)N(C)C(=O)[C@@H](NC(=O)[C@H](C(C)C)N(C)C)C(C)C [NCGC00378623-01, (S)-2-((S)-2-(dimethylamino)-3-methylbutanamido)-N-((3R,4S,5S)-3-methoxy-1-((S)-2-((1R,2R)-1-methoxy-2-methyl-3-oxo-3-(((S)-2-phenyl-1-(thiazol-2-yl)ethyl)amino)propyl)pyrrolidin-1-yl)-5-methyl-1-oxoheptan-4-yl)-N,3-dimethylbutanamide] | – | No | No | –
CCCOc1ccc2nc(NC(=O)OC)[nH]c2c1 [NCGC00018238-09, methyl (6-propoxy-1H-benzo[d]imidazol-2 - yl)carbamate] | 0.000233 | No | No | –
CC(=O)OC[C@]12CCC(C)=C[C@H]1O[C@@H]1[C@H](O)[C@@H](OC(C)=O)[C@@]2(C)[C@]12CO2 [NCGC00179895-03, ((2S,2′R,3′R,4′S,5′S,5a′R,9a′R)-4′-acetoxy-3′-hydroxy-5′,8′-dimethyl-2′,3′,4′,5′,7′,9a′-hexahydrospiro[oxirane-2,10′-[2,5]methanobenzo[b]oxepin]-5a′(6′H) - yl)methyl acetate] | – | – | – | Anti-DENV Activity at 1 uM (SNB-19 cells) [2]: Yes; Anti-DENV Activity at 10 uM (SNB-19 cells) [2]: Yes
O=c1[nH]c(=O)n(C2C[C@@H](O)[C@@H](CO)O2)cc1F (stereo partly drawn) [NCGC00263862-02, 5-fluoro-l-((4R,5R)-4-hydroxy-5-(hydroxymethyl)tetrahydrofuran-2-yl)pyrimidine-2,4(1H,3H)-dione] | 0.0165 | No | No | –
CCOC(=O)c1ccc(N2C(=O)c3[nH]nc(-c4ccc(OC)cc4)c3C2c2ccc(C)cc2)cc1 (centres unmarked) [NCGC00108525-01, ethyl 4-(3-(4-methoxyphenyl)-6-oxo-4-(p-tolyl)-4,6-dihydropyrrolo[3,4-c]pyrazol-5(1H)-yl)benzoate] | – | No | Yes | IC50 ([1]; Zika virus, Vero): 0.137 µM
CC(=O)OC[C@]12C[C@H](OC(=O)CC(C)C)C(C)=C[C@H]1O[C@@H]1[C@H](O)[C@@H](OC(C)=O)[C@@]2(C)[C@]12CO2 [NCGC00387651-01, (2S,2′R,3′R,4′S,5′S,5a′R,7′S,9a′R)-4′-acetoxy-5a′-(acetoxymethyl)-3′-hydroxy-5′,8′-dimethyl-2′,3′,4′,5′,5a′,6′,7′,9a′-octahydrospiro[oxirane-2,10′-[2,5]methanobenzo[b]oxepin]-7′-yl 3 - methylbutanoate] | – | – | – | Anti-DENV Activity at 1 uM (SNB-19 cells) [2]: Yes; Anti-DENV Activity at 10 uM (SNB-19 cells) [2]: Yes
CCOc1ccc(N2C(=O)c3[nH]nc(-c4cccs4)c3C2c2cccc(F)c2)cc1 (centres unmarked) [NCGC00102779-01, 5-(4-ethoxyphenyl)-4-(3-fluorophenyl)-3-(thiophen-2-yl)-4,5-dihydropyrrolo[3,4-c]pyrazol-6(lH)-one] | 9.24 | No | No | –
CCC(C)C1NC(=O)C2CCCN2C(=O)C(CC(C)C)OC(=O)CCNC(=O)C(C)N(C)C(=O)C(C(C)C)N(C)C1=O (centres unmarked) [NCGC00169957-03, 3-(sec-butyl)-16-isobutyl-6-isopropyl-5,8,9-trimethyldodecahydropyrrolo[1,2-d][l]oxa[4,7,10,13,16] pentaazacyclononadecine-1,4,7,10,14,17(11H,16H)-hexaone] (cyclo([ξLac(3-iPr)]PI[NMeV][NMeA][βAla]); configuration not given here) | – | – | – | IC50 ([1]; Zika virus, Vero): 0.613 µM; Anti-DENV Activity at 1 uM (SNB-19 cells) ([2]; 1 uM): No; Anti-DENV Activity at 10 uM (SNB-19 cells) ([2]; 10 uM): Yes
O=C(Nc1cccnc1)c1cccs1 [NCGC00072088-02, N-(pyridin-3-yl)thiophene-2-carboxamide] | 2.35 | No | Yes | –
COCCn1c(=O)[nH]c2cc(C(=O)NCc3ccccc3Cl)ccc2c1=O [NCGC00104879-01, N-(2-chlorobenzyl)-3-(2-methoxyethyl)-2,4-dioxo-1,2,3,4-tetrahydroquinazoline-7-carboxamide] | – | No | No | IC50 [1, 6]: > 30 µM
O=c1nc[nH]c2c1ccn2C1OC(CO)C(O)C1O (centres unmarked) [NCGC00246910-02, 7-(3,4-dihydroxy-5-(hydroxymethyl)tetrahydrofuran-2-yl)-1,7-dihydro-4H-pyrrolo[2,3-d]pyrimidin-4-one] | 0.27 | No | Yes | –
CC1=Nc2cc(C(=O)NCc3ccccc3Cl)ccc2Sc2c(C)ccc(C)c21 [NCGC00112058-01, N-(2-chlorobenzyl)-1,4,11-trimethyldibenzo[b,f][1,4]thiazepine-8-carboxamide] | – | No | No | IC50 [1, 6]: > 30 µM
COC(=O)c1cc2occc2n1Cc1nc(-c2ccc(C)cc2)oc1C [NCGC00113159-01, methyl 4-[[5-methyl-2-(4-methylphenyl)-1,3-oxazol-4-yl]methyl]furo[3,2-b]pyrrole-5 - carboxylate] | – | No | No | IC50 [1, 6]: > 30 µM
CCOC(=O)c1ccc(N2C(=O)c3[nH]nc(-c4ccco4)c3C2c2ccc(C)cc2)cc1 (centres unmarked) [NCGC00108581-01, ethyl 4-(3-(furan-2-yl)-6-oxo-4-(p-tolyl)-4,6-dihydropyrrolo[3,4-c]pyrazol-5(1H)-yl)benzoate] | 2.42 | No | Yes | –
O=C1N[C@@H]2C(=C[C@H](O)[C@@H](O)[C@H]2O)c2cc3c(c(O)c21)OCO3 [NCGC00357393-02, (2S,3R,4S,4aR)-2,3,4,7-tetrahydroxy-3,4,4a,5-tetrahydro-[1,3]dioxolo[4,5-j] phenanthridin-6(2H)-one] | – | – | – | IC50 [1]: 0.000674 µM; Anti-DENV Activity at 1 uM (SNB-19 cells) ([2]; 1 uM): Yes; Anti-DENV Activity at 10 uM (SNB-19 cells) ([2]; 10 uM): Yes
